Series [1] can be described thus: Cytotoxicity in HepG2.117 cells, ATPlite Luminescence Assay. In kind it is cell-based, human. The conditions noted are these: human, incubated for 3 days, mean value, read-out: TOX-HepG2.117 CC50 (μM, mean value). How it is done:
Cytotoxicity of the compounds was tested using HepG2 or HepG2.117 cells, incubated for 3 days in the presence of compounds. The viability of the cells was assessed using the PERKIN ELMER ATPlite Luminescence Assay System.”
Background: In ATP-based viability assays light output follows the ATP content of the culture.

For series [2], the system named is HBV. As to the kind of experiment: Anti-HBV activity: intracellular HBV DNA by real-time PCR in HepG2.117 cell line. The conditions noted are these: Hepatitis B virus, read-out: HBV-AVE-HepG2.117 EC50 (μM, mean value). It counts as cell-based, Hepatitis B virus. How it is done: The anti HBV activity was measured using the HepG2.117 cell line, a stable, inducibly HBV producing cell line, which replicates HBV in the absence of doxicycline (Tet-off system). The HepG2 cell line is available from ATCC® under number HB-8065. Transfection of the HepG2 cell line can be as described in Sun and Nassal 2006 Journal of Hepatology 45 (2006) 636-645 “Stable HepG2- and Huh7-based human hepatoma cell lines for efficient regulated expression of infectious hepatitis B virus”.
For the antiviral assay, HBV replication was induced, followed by a treatment with serially diluted compound in 96-well plates. After 3 days of treatment, the antiviral activity was determined by quantification of intracellular HBV DNA using real-time PCR and an HBV specific primer set and probe.
In general terms: In qPCR the cycle at which signal appears reflects the starting amount.

The mark [3] stands for this setting: 72 h, HepG2.117 cells, 3 days of treatment, intracellular HBV DNA by real-time PCR, mean value.

Where two headings read alike, the source gives them in different places.

In general, CC50 refers to the concentration giving 50% cytotoxicity. Broadly, the EC50 is the concentration at which the effect is half-maximal. `C[C@@H]1Cc2nn3c(c2CN1C(=O)c1ccc(Cl)c(Cl)c1)C(=O)N(Cc1ccon1)CC3` [Compound 21, (3R)-2-(3,4-Dichlorobenzoyl)-3-methyl-9-[(1,2-oxazol-3-yl)methyl]-1,2,3,4,8,9-hexahydro-pyrido[4′,3′:3,4]pyrazolo[1,5-a]pyrazin-10(7H)-one]: in series [1], the CC50 at 3 days is over 50 µM. For the same compound, the EC50 in series [2] (setting [3]) turned out to be 0.268 µM.

`C[C@@H]1Cc2nn3c(c2CN1C(=O)c1ccc(Cl)c(Cl)c1)C(=O)N(Cc1cscn1)CC3` [Compound 22, (3R)-2-(3,4-Dichlorobenzoyl)-3-methyl-9-[(1,3-thiazol-4-yl)methyl]-1,2,3,4,8,9-hexahydro-pyrido[4′,3′:3,4]pyrazolo[1,5-a]pyrazin-10(7H)-one]: in series [1], the half-maximal cytotoxic concentration (CC50) at 3 days is over 50 µM. Moreover, the EC50 in series [2] (setting [3]) amounted to 0.129 µM.

`COc1ccc([C@@H](C)N2CCn3nc4c(c3C2=O)CN(C(=O)c2ccc(Cl)c(Cl)c2)[C@H](C)C4)cc1` [Compound 23, (3R)-2-(3,4-Dichlorobenzoyl)-9-[(1R)-1-(4-methoxyphenyl)ethyl]-3-methyl-1,2,3,4,8,9-hexahydropyrido[4′,3′:3,4]pyrazolo[1,5-a]pyrazin-10(7H)-one]: the CC50 at 3 days in series [1] is over 50 µM. In addition, the concentration for a half-maximal effect (EC50) in series [2] (setting [3]) amounted to 0.022 µM.

As to `COc1ccc([C@H](C)N2CCn3nc4c(c3C2=O)CN(C(=O)c2ccc(Cl)c(Cl)c2)[C@H](C)C4)cc1` [Compound 24, (3R)-2-(3,4-dichlorobenzoyl)-9-[(1S)-1-(4-methoxyphenyl)ethyl]-3-methyl-1,2,3,4,8,9-hexahydropyrido[4′,3′:3,4]pyrazolo[1,5-a]pyrazin-10(7H)-one], in series [1], the CC50 at 3 days is 10.4 µM. For the same compound, the EC50 in series [2] (setting [3]) came to 0.036 µM.

For the compound `C[C@@H]1Cc2nn3c(c2CN1C(=O)c1ccc(Cl)c(Cl)c1)C(=O)N([C@H](C)c1ccc(F)cc1)CC3` [Compound 25, (3R)-2-(3,4-Dichlorobenzoyl)-9-[(1R)-1-(4-fluorophenyl)ethyl]-3-methyl-1,2,3,4,8,9-hexahydropyrido[4′,3′:3,4]pyrazolo[1,5-a]pyrazin-10(7H)-one], the CC50 at 3 days in series [1] is over 25 µM. The EC50 in series [2] (setting [3]) came to 0.016 µM.

Consider `C[C@@H]1Cc2nn3c(c2CN1C(=O)c1ccc(Cl)c(Cl)c1)C(=O)N([C@@H](C)c1ccc(F)cc1)CC3` [Compound 26, (3R)-2-(3,4-Dichlorobenzoyl)-9-[(1S)-1-(4-fluorophenyl)ethyl]-3-methyl-1,2,3,4,8,9-hexahydro-pyrido[4′,3′:3,4]pyrazolo[1,5-a]pyrazin-10(7H)-one], for which, in series [1], the cytotoxic concentration (CC50) at 3 days is 26.2 µM. Besides, the EC50 in series [2] (setting [3]) was 0.028 µM.

Regarding `C[C@@H]1Cc2nn3c(c2CN1C(=O)c1ccc(Cl)c(Cl)c1)C(=O)N([C@H](C)c1ccc(OC(F)F)cc1)CC3` [Compound 27, (3R)-2-(3,4-Dichlorobenzoyl)-9-{(1R)-1-[4-(difluoromethoxy)phenyl]ethyl}-3-methyl-1,2,3,4,8,9-hexahydropyrido[4′,3′:3,4]pyrazolo[1,5-a]pyrazin-10(7H)-one], in series [1], the CC50 at 3 days is over 50 µM. In addition, the EC50 in series [2] (setting [3]) came to 0.103 µM.

For `C[C@@H]1Cc2nn3c(c2CN1C(=O)c1ccc(Cl)c(Cl)c1)C(=O)N([C@@H](C)c1ccc(OC(F)F)cc1)CC3` [Compound 28, (3R)-2-(3,4-Dichlorobenzoyl)-9-{(1S)-1-[4-(difluoromethoxy)phenyl]ethyl}-3-methyl-1,2,3,4,8,9-hexahydropyrido[4′,3′:3,4]pyrazolo[1,5-a]pyrazin-10(7H)-one], the CC50 at 3 days in series [1] is 16.7 µM. Also, the concentration giving a half-maximal response (EC50) in series [2] (setting [3]) was found to be 0.057 µM.

Regarding `C[C@@H]1Cc2nn3c(c2CN1C(=O)c1ccc(Cl)c(Cl)c1)C(=O)N([C@@H](C)c1ncn(S(=O)(=O)N(C)C)n1)CC3` [Compound 29, 3-{(1S)-1-[(3R)-2-(3,4-Dichlorobenzoyl)-3-methyl-10-oxo-1,3,4,7,8,10-hexahydropyrido-[4′,3′:3,4]pyrazolo[1,5-a]pyrazin-9(2H)-yl]ethyl}-N,N-dimethyl-1H-1,2,4-triazole-1-sulfonamide], in series [1], the CC50 at 3 days was over 50 µM. The EC50 in series [2] (setting [3]) was determined as 0.741 µM.

For `C[C@@H]1Cc2nn3c(c2CN1C(=O)c1ccc(Cl)c(Cl)c1)C(=O)N([C@@H](C)c1nc[nH]n1)CC3` [Compound 30, (3R)-2-(3,4-Dichlorobenzoyl)-3-methyl-9-[(1S)-1-(1H-1,2,4-triazol-3-yl)ethyl]-1,2,3,4,8,9-hexa-hydropyrido[4′,3′:3,4]pyrazolo[1,5-a]pyrazin-10(7H)-one], the CC50 at 3 days in series [1] was over 50 µM. In addition, in series [2] (HepG2.117, 72 h), the EC50 turned out to be 1.5 µM.

Take `CN1CCCn2nc3c(c2C1=O)CN(C(=O)c1ccc(Cl)c(Cl)c1)CC3` [Compound 34, 2-(3,4-Dichlorobenzoyl)-10-methyl-1,2,3,4,7,8,9,10-octahydro-11H-pyrido[4′,3′:3,4]pyrazolo-[1,5-a][1,4]diazepin-11-one]: the CC50 at 3 days in series [1] was over 50 µM. Moreover, the EC50 in series [2] (setting [3]) is 1.38 µM.

`COc1ccc(CN2CCCn3nc4c(c3C2=O)CN(C(=O)c2ccc(Cl)c(Cl)c2)CC4)cc1` [Compound 36, 2-(3,4-Dichlorobenzoyl)-10-[(4-methoxyphenyl)methyl]-1,2,3,4,7,8,9,10-octahydro-11H-pyrido[4′,3′:3,4]pyrazolo[1,5-a][1,4]diazepin-11-one]: the CC50 at 3 days in series [1] amounted to 24.6 µM. The EC50 in series [2] (setting [3]) turned out to be 0.077 µM.

For the compound `O=C(c1ccc(Cl)c(Cl)c1)N1CCc2nn3c(c2C1)C(=O)N(Cc1ccncc1)CCC3` [Compound 37, 2-(3,4-Dichlorobenzoyl)-10-[(pyridin-4-yl)methyl]-1,2,3,4,7,8,9,10-octahydro-11H-pyrido-[4′,3′:3,4]pyrazolo[1,5-a][1,4]diazepin-11-one], the CC50 at 3 days in series [1] is over 50 µM. In addition, the concentration giving a half-maximal response (EC50) in series [2] (setting [3]) stood at 0.345 µM.

Take `C[C@@H]1Cc2nn3c(c2CN1C(=O)c1ccc(Cl)c(Cl)c1)C(=O)NCCC3` [Compound 38, (3R)-2-(3,4-Dichlorobenzoyl)-3-methyl-1,2,3,4,7,8,9,10-octahydro-11H-pyrido[4′,3′:3,4]-pyrazolo[1,5-a][1,4]diazepin-11-one]: the CC50 at 3 days in series [1] was over 50 µM. In series [2] (setting [3]), the EC50 worked out at 1.75 µM.

Consider `CC(C)CN1CCCn2nc3c(c2C1=O)CN(C(=O)c1ccc(Cl)c(Cl)c1)[C@H](C)C3` [Compound 39, (3R)-2-(3,4-Dichlorobenzoyl)-3-methyl-10-(2-methylpropyl)-1,2,3,4,7,8,9,10-octahydro-11H-pyrido[4′,3′:3,4]pyrazolo[1,5-a][1,4]diazepin-11-one], for which the CC50 at 3 days in series [1] was over 50 µM. In addition, the EC50 in series [2] (HepG2.117, 72 h) worked out at 2.49 µM.

Turning to `COc1ccc(CN2CCCn3nc4c(c3C2=O)CN(C(=O)c2ccc(Cl)c(Cl)c2)[C@H](C)C4)cc1` [Compound 40, (3R)-2-(3,4-Dichlorobenzoyl)-10-[(4-methoxyphenyl)methyl]-3-methyl-1,2,3,4,7,8,9,10-octahydro-11H-pyrido[4′,3′:3,4]pyrazolo[1,5-a][1,4]diazepin-11-one], the CC50 at 3 days in series [1] turned out to be 20.9 µM. For the same compound, the EC50 in series [2] (setting [3]) was 0.022 µM.

`COc1ccc(CN2CC(NS(C)(=O)=O)Cn3nc4c(c3C2=O)CN(C(=O)c2ccc(Cl)c(Cl)c2)CC4)cc1` (stereo not drawn) [Compound 41, N-{2-(3,4-Dichlorobenzoyl)-10-[(4-methoxyphenyl)methyl]-11-oxo-1,3,4,7,8,9,10,11-octahydro-2H-pyrido[4′,3′:3,4]pyrazolo[1,5-a][1,4]diazepin-8-yl}methanesulfonamide]: in series [1], the CC50 at 3 days was over 50 µM. In series [2] (setting [3]), the EC50 was 0.328 µM.

On to `C=C1CN(C)C(=O)c2c3c(nn2C1)C[C@@H](C)N(C(=O)c1ccc(Cl)c(Cl)c1)C3` [Compound 42, (3R)-2-(3,4-Dichlorobenzoyl)-3,10-dimethyl-8-methylidene-1,2,3,4,7,8,9,10-octahydro-11H-pyrido[4′,3′:3,4]pyrazolo[1,5-a][1,4]diazepin-11-one], for which the CC50 at 3 days in series [1] is 1.44 µM. Besides, the EC50 in series [2] (setting [3]) is 0.308 µM.

With `C=C1CN(CC(F)(F)F)C(=O)c2c3c(nn2C1)CCN(C(=O)c1ccc(Cl)c(Cl)c1)C3` [Compound 43, 2-(3,4-Dichlorobenzoyl)-8-methylidene-10-(2,2,2-trifluoroethyl)-1,2,3,4,7,8,9,10-octahydro-11H-pyrido[4′,3′:3,4]pyrazolo[1,5-a][1,4]diazepin-11-one], the CC50 at 3 days in series [1] was over 50 µM. Further, in series [2] (setting [3]), the EC50 is 0.21 µM.

As for `C[C@@H]1Cc2nn3c(c2CN1C(=O)c1ccc(Cl)c(Cl)c1)C(=O)N(C)C[C@@H](F)C3` [Compound 44], in series [1], the cytotoxic concentration (CC50) at 3 days is over 50 µM. Further, in series [2] (setting [3]), the EC50 was found to be 0.079 µM.

Take `O=C(c1ccc(Cl)c(Cl)c1)N1CCc2nn3c(c2C1)C(=S)NCCC3` [Compound 48, (3,4-dichlorophenyl)(11-sulfanylidene-1,3,4,7,8,9,10,11-octahydro-2H-pyrido[4′,3′:3,4]pyrazolo-[1,5-a][1,4]diazepin-2-yl)methanone]: the cytotoxic concentration (CC50) at 3 days in series [1] was over 50 µM. The EC50 in series [2] (setting [3]) was 1.23 µM.

Regarding `COc1ccc(CN2CCn3nc4c(c3C2=O)CN(C(=O)c2ccc(F)c(C)c2)CC4)cc1` [Example C49], the CC50 at 3 days in series [1] came to 20.6 µM. For the same compound, the EC50 in series [2] (setting [3]) was 0.274 µM.

`COc1ccc(CN2CCn3nc4c(c3C2=O)CN(C(=O)c2ccc(F)c(C#N)c2)CC4)cc1` [Example C52]: in series [1], the CC50 at 3 days is over 50 µM. Besides, the 50% effective concentration (EC50) in series [2] (setting [3]) is 0.995 µM.

With `COc1ccc(CN2CCn3nc4c(c3C2=O)CN(C(=O)c2ccc(C)c(F)c2)CC4)cc1` [Example C53], in series [1], the CC50 at 3 days came out at 20.4 µM. Moreover, the EC50 in series [2] (setting [3]) turned out to be 1.08 µM.

Values taken from US20220348592A1, “FUSED HETEROCYCLIC DERIVATIVES” (Janssen Sciences Ireland Unlimited Company, priority 2019, published 2022).
